# US6066655A, “4-phenyl-3-substituted 1,4-dihydropyridine esters” (Bayer Aktiengesellschaft, priority 1993, dated 2000)
# Columns and labels:
# [1] = tested on: PN 200-110 binding sites in the rat brain; assay: Binding affinity for PN 200-110 (DHP) binding sites in the rat brain; conditions: for Selectivity: Ki (Heart) relative to Ki (Brain), rat; for Ki: rat brain, PN 200-110 binding sites
# Text: (§1) Binding Assays […] Can. Journ. Physiol. Pharmacol. 65, (1987) 1452. […] This manifests itself, for example, by comparison of the binding affinities for DHP (PN-200 110) binding sites in the rat brain and rat […]., Rutledge, A., Janis, […]., Can. Journ. Physiol. Pharmacol. 65 (1987), 1452].
# [2] = biological target: T1, PN 200-110 binding sites in the rat heart (Rattus norvegicus, UniProt P22002); assay: Binding affinity for PN 200-110 (DHP) binding sites in the rat heart
# T1 construct: from tissue; host or cells: rat heart
# Text: as §1
# T1 sequence (P22002 whole entry, other chains not shown): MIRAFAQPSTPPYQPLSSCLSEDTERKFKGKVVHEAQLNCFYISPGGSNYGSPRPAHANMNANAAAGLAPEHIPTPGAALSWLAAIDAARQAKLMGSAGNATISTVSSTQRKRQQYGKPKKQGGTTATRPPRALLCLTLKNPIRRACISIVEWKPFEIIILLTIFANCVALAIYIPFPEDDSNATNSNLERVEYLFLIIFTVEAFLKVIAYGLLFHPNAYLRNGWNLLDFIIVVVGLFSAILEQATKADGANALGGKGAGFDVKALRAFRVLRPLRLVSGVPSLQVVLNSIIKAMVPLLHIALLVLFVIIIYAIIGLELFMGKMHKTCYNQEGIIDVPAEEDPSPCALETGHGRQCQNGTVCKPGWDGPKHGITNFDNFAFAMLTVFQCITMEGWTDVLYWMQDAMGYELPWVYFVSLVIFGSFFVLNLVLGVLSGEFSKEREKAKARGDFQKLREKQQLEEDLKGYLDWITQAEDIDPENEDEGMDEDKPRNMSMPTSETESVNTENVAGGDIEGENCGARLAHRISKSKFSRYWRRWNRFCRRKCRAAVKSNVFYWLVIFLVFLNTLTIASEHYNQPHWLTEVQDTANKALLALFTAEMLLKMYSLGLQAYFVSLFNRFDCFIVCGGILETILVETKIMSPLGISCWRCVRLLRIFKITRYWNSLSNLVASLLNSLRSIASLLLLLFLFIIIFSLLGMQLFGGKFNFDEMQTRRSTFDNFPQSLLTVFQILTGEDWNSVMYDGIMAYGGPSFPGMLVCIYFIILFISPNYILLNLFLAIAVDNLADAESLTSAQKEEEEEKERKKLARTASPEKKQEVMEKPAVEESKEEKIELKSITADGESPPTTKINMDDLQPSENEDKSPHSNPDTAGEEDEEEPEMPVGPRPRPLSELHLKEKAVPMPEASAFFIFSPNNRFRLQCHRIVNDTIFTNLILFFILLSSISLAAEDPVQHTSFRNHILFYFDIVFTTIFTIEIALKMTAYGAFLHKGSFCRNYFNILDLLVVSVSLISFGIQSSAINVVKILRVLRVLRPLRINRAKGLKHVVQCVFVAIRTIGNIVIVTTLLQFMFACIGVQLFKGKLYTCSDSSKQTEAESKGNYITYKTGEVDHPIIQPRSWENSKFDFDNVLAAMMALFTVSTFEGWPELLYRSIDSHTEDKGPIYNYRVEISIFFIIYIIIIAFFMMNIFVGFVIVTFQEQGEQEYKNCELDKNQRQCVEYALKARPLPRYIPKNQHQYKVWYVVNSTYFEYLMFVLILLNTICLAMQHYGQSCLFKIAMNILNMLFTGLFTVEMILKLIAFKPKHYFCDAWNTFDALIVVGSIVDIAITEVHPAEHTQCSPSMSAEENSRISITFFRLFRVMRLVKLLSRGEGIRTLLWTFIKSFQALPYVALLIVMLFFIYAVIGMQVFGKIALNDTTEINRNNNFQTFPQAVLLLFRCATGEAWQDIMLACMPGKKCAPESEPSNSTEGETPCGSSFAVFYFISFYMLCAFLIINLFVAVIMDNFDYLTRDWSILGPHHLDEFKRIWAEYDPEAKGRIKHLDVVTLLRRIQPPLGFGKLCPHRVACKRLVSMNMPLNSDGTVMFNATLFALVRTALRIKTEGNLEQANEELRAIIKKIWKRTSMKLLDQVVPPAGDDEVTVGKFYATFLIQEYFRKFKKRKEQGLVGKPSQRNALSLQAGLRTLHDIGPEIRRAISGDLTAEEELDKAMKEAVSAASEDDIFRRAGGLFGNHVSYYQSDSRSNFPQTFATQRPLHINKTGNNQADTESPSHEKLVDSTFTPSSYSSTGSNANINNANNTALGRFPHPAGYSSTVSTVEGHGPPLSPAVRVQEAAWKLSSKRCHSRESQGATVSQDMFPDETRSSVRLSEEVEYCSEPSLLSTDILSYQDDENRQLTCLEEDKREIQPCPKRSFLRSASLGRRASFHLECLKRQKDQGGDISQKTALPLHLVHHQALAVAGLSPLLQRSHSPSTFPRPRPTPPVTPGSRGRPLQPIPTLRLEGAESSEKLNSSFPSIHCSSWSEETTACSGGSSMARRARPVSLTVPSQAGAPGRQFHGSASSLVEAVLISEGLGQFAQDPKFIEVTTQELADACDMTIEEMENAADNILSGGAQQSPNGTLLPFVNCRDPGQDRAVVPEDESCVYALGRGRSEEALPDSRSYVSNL
# T1 sequence (P54290 25-944 partner limits assumed, other chains not shown): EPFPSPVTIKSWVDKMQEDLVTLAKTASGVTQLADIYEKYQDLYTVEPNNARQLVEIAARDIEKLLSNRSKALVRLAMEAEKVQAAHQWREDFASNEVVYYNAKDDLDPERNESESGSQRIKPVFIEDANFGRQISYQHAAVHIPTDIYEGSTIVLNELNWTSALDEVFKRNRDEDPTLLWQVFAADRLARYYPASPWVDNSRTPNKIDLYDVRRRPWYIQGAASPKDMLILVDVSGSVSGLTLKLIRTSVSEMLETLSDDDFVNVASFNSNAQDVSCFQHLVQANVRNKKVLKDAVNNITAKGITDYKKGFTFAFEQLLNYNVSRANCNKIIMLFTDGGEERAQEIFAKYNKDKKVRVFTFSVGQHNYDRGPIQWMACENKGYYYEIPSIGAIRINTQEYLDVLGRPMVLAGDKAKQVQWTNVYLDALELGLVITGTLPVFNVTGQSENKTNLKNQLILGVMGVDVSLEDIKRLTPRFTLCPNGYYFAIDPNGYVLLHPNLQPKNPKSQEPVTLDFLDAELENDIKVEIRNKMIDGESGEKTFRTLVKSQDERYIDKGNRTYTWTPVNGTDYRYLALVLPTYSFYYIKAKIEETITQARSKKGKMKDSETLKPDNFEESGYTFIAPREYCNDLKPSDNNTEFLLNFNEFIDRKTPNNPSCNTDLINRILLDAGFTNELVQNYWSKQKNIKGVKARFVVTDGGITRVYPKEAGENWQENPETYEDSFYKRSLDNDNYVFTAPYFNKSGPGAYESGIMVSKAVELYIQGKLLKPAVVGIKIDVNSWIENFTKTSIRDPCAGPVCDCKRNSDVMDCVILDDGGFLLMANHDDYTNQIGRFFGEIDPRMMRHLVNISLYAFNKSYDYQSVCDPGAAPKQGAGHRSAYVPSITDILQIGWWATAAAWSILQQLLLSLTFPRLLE
# T1 sequence (P54290 945-1091 partner limits assumed, other chains not shown): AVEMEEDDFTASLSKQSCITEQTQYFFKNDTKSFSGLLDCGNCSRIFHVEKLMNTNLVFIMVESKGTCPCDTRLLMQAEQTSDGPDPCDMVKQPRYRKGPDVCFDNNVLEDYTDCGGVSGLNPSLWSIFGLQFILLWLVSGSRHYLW
Selectivity [1],Ki [1],Ki [2],SMILES
6.0,13 nM,78 nM,"CO[C@H](COC(=O)C1=C(C)NC(C)=C(C(=O)OC(C)C)C1c1cccc(F)c1F)c1ccccc1 (stereo partly drawn) [Example 21, isopropyl (S)-methoxy-2-phenylethyl 4-(2,3-difluorophenyl)-1,4-dihydro-2,6-dimethylpyridine-3,5-dicarboxylate]"
0.44,32 nM,,"COC(=O)C1=C(C)NC(C)=C(C(=O)OCCN(C)Cc2ccccc2)C1c1cccc([N+](=O)[O-])c1 (stereo not shown) [Nicardipine, nicardipine]"
1.9,2.4 nM,,"COCCOC(=O)C1=C(C)NC(C)=C(C(=O)OC(C)C)C1c1cccc([N+](=O)[O-])c1 (stereo not shown) [Nimodipine, nimodipine]"
